The source of these data is PMC5910394, “Mechanically interlocked functionalization of monoclonal antibodies” (Nature Communications, 2018).

Structures are written as SMILES. Starred links: 1 amine or outer side, 2 acyl side, 3 side chain; linkers in the order of their positions; H or OH if unused. Positions of bridges follow the written chain, without caps; N, C: chain ends. Non-standard residues stand in square brackets, D forms with d. Residues, ends and D or L forms follow the SMILES beside them. X1 = [N-]=[N+]=NCCOCCOCCNC(=N)NCCC[C@H](N[*:1])C(=O)[*:2]; Dip = N[C@H](C(=O)O)C(c1ccccc1)c1ccccc1

The test system of one test is memAb anti-HER2. Kind of test: SPR binding kinetics of meditope variants to immobilized memAb anti-HER2. The following applies: n=1. A general note: In SPR one partner is held on a chip, and binding of the other changes the refractive index at the surface.
The target in the next test is Ile83Glu memAb anti-HER2. Kind of test: SPR binding kinetics of meditope variants to immobilized Ile83Glu memAb anti-HER2.
Setting [1] is: SPR Biacore T100, memAb on CM5 chip, HBS-EP+, 1:1 model, 25°C.

The Kd is the constant that tells how readily two partners part at equilibrium. A high value points to weaker binding.

`CC(C)C[C@@H]1NC(=O)[C@H](CCCNC(=N)N)NC(=O)[C@H](CCCNC(=N)N)NC(=O)[C@H]([C@@H](C)O)NC(=O)[C@H](CO)NC(=O)[C@H](CC(C)C)NC(=O)[C@H](CC(=O)O)NC(=O)[C@H](C(c2ccccc2)c2ccccc2)NC(=O)[C@H](CCC(N)=O)NC(=O)[C@@H](N)CSSC[C@@H](C(=O)O)NC(=O)[C@H](CCCCN)NC1=O`: the ka in the test with memAb anti-HER2 (setting [1]) is 0.92 M-1s-1 x 104. At memAb anti-HER2 (SPR, 25°C), this molecule gave a Kd of 2.6 µM and a kd of 0.024 s⁻¹.

With `CC(C)C[C@@H]1NC(=O)[C@H](CCCNC(=N)N)NC(=O)[C@H](CCCNC(=N)N)NC(=O)[C@H]([C@@H](C)O)NC(=O)[C@H](CO)NC(=O)[C@H](CC(C)C)NC(=O)[C@H](CC(=O)O)NC(=O)[C@H](Cc2ccc(O)cc2)NC(=O)[C@H](CCC(N)=O)NC(=O)[C@@H](N)CSSC[C@@H](C(=O)O)NC(=O)[C@H](CCCCN)NC1=O`, the ka with memAb anti-HER2 (setting [1]) was 2.8 M-1s-1 x 104. At memAb anti-HER2 (SPR, 25°C), this molecule came in with a Kd of 3.9 µM and a kd of 0.11 s⁻¹.

Consider `CC(C)C[C@@H]1NC(=O)[C@H](C)NC(=O)[C@H](CCCNC(=N)N)NC(=O)[C@H](CO)NC(=O)[C@H](CO)NC(=O)[C@H](CC(C)C)NC(=O)[C@H](CC(N)=O)NC(=O)[C@H](Cc2ccc(O)cc2)NC(=O)[C@H](CCC(N)=O)NC(=O)[C@@H](N)CSSC[C@@H](C(=O)O)NC(=O)[C@H](CCCCN)NC1=O`, for which, in the test with memAb anti-HER2 (setting [1]), the ka is reported as 0.97 M-1s-1 x 104. For the same molecule, on memAb anti-HER2 (SPR, 25°C), the Kd stood at 3.4 µM and the kd worked out at 0.033 s⁻¹.

As for `CC(C)C[C@@H]1NC(=O)[C@H](CCCNC(=N)N)NC(=O)[C@H](CCCNC(=N)N)NC(=O)[C@H]([C@@H](C)O)NC(=O)[C@H](CO)NC(=O)[C@H](CC(C)C)NC(=O)[C@H](CC(=O)O)NC(=O)[C@H](Cc2ccc(Br)cc2)NC(=O)[C@H](CCC(N)=O)NC(=O)[C@@H](N)CSSC[C@@H](C(=O)O)NC(=O)[C@H](CCCCN)NC1=O`, in the test with memAb anti-HER2 (setting [1]), the ka is 0.91 M-1s-1 x 104. For the same molecule, on memAb anti-HER2 (SPR, 25°C), the Kd worked out at 4.7 µM and the kd worked out at 0.042 s⁻¹.

`CC(C)C[C@@H]1NC(=O)[C@H](CCCNC(=N)N)NC(=O)[C@H](CCCNC(=N)N)NC(=O)[C@H]([C@@H](C)O)NC(=O)[C@H](CO)NC(=O)[C@H](CC(C)C)NC(=O)[C@H](CC(=O)O)NC(=O)[C@H](Cc2ccccc2)NC(=O)[C@H](CCC(N)=O)NC(=O)CCCCCCNC(=O)[C@H](CCCCN)NC1=O`: in the test on memAb anti-HER2 (setting [1]), the ka is 2.1 M-1s-1 x 104. At memAb anti-HER2 (SPR, 25°C), this molecule gave an equilibrium dissociation constant (Kd) of 5.7 µM and a kd of 0.12 s⁻¹.

Turning to `CC(=O)N[C@H]1CSSC[C@@H](C(=O)NCC(=O)NCC(=O)N[C@@H](CO)C(=O)N[C@@H](CCCCN)C(=O)O)NC(=O)[C@H](CCCNC(=N)N)NC(=O)[C@H](CC(C)C)NC(=O)[C@H](CCCNC(=N)N)NC(=O)[C@H](CCCNC(=N)N)NC(=O)[C@H]([C@@H](C)O)NC(=O)[C@H](CO)NC(=O)[C@H](CC(C)C)NC(=O)[C@H](CC(=O)O)NC(=O)[C@H](Cc2ccccc2)NC(=O)[C@H](CCC(N)=O)NC1=O`, the ka in the test with memAb anti-HER2 (setting [1]) is recorded as 2.8 M-1s-1 x 104; with memAb anti-HER2 (SPR, 37 °C), 7.5 M-1s-1 x 104; in the test with Ile83Glu memAb anti-HER2 (SPR, 25°C, n=1) it was 71 M-1s-1 x 104; in the test with Ile83Glu memAb anti-HER2 (SPR, 37°C, n=4, mean (±SD)), 16 (±6) M-1s-1 x 104. In addition, the Kd on memAb anti-HER2 (SPR, 25°C) is 0.21 µM; at memAb anti-HER2 (SPR, 37 °C) it was 0.35 µM; on Ile83Glu memAb anti-HER2 (SPR, 25°C, n=1), 0.00044 µM; on Ile83Glu memAb anti-HER2 (SPR, 37°C, n=4, mean (±SD)), 0.004 µM. The kd came out at 0.006 s⁻¹ at memAb anti-HER2 (SPR, 25°C) and 0.026 s⁻¹ on memAb anti-HER2 (SPR, 37 °C).

As for `CC(=O)N[C@H]1CSSC[C@@H](C(=O)NCC(=O)NCC(=O)N[C@@H](CO)C(=O)N[C@@H](CCCCN)C(=O)O)NC(=O)[C@H](CCCNC(=N)N)NC(=O)[C@H](CC(C)C)NC(=O)[C@H](CCCNC(=N)N)NC(=O)[C@H](CCCNC(=N)NCCOCCOCCN=[N+]=[N-])NC(=O)[C@H]([C@@H](C)O)NC(=O)[C@H](CO)NC(=O)[C@H](C(c2ccccc2)c2ccccc2)NC(=O)[C@H](CC(=O)O)NC(=O)[C@H](Cc2ccccc2)NC(=O)[C@H](CCC(N)=O)NC1=O` (Ac-CQFD[Dip]ST[X1]RLRCGGSK-OH; disulfide 1-12), binding on Ile83Glu memAb anti-HER2 (SPR sensogram (Fig. 1c E83 / Supplementary Fig. 1a), 37 °C, n = 1) was put at a Kd of 0.0021 µM. Moreover, in the test on Ile83Glu memAb anti-HER2 (SPR, 37 °C), the “half-life of the interaction (τ)” value is 1.38 h.

On to `CC(C)C[C@@H]1NC(=O)[C@H](CCCNC(=N)N)NC(=O)[C@H](CCCNC(=N)N)NC(=O)[C@H]([C@@H](C)O)NC(=O)[C@H](CO)NC(=O)[C@H](CC(C)C)NC(=O)[C@H](CC(=O)O)NC(=O)[C@H](Cc2ccccc2)NC(=O)[C@H](CCC(N)=O)NC(=O)CCSSC[C@@H](C(=O)O)NC(=O)[C@H](CCCCN)NC1=O` [(MPT) QFDLSTRRLKC], for which the ka with memAb anti-HER2 (setting [1]) is on record as 1.8 M-1s-1 x 104. On memAb anti-HER2 (SPR, 25°C), the dissociation constant (Kd) stood at 1 µM and the kd worked out at 0.018 s⁻¹.

In the case of `CC(C)C[C@@H]1NC(=O)[C@H](CCCNC(=N)N)NC(=O)[C@H](CCCNC(=N)N)NC(=O)[C@H]([C@@H](C)O)NC(=O)[C@H](CO)NC(=O)[C@H](C(c2ccccc2)c2ccccc2)NC(=O)[C@H](CC(=O)O)NC(=O)[C@H](Cc2ccccc2)NC(=O)[C@H](CCC(N)=O)NC(=O)[C@@H](N)CSSC[C@@H](C(=O)O)NC(=O)[C@H](CCCCN)NC1=O` [CQFDA(Ph)2STRRLKC], in the test on memAb anti-HER2 (setting [1]), the ka is 20 M-1s-1 x 104. At memAb anti-HER2 (SPR, 25°C), the Kd is 0.04 µM and the kd stood at 0.008 s⁻¹.
